Test results published in patent US5536723A, “S-nitroso derivatives of hydrazinoacetic acids, 1-[(acylthio and (mercapto)-1-oxoalkyl]-1,2,34-Tetrahydroquinoline-2-carboxylic acids and alanyl prolines and isoquinolines” (Brigham & Women's Hospital, priority 1994, dated 1996).
“Also recorded” adds a separate entry of the source.

How the values were obtained:
[1] = spontaneous hydrolysis (half-life of the S-nitroso bond) in physiologic buffer (PSS); type: physicochemical; details: 37° C.
Experimental: FIG. 1 depicts a graph showing the spontaneous hydrolysis of S-nitrosocaptopril in PBS. Each point represents the mean ±SEM of four experiments performed in duplicate.
The half-life of the S-nitroso bond of S-nitrosocaptopril in physiologic buffer and in plasma was determined by incubating purified S-nitrosocaptopril in aerated PSS or in PPP, the results of which are shown in FIG. 1.

bovine coronary artery = assay: relaxation of isolated bovine coronary artery rings contracted with potassium chloride
Source text: FIG. 5 depicts a graph showing the relaxation to sodium nitroprusside in the bovine coronary artery in the presence (o; n=7) or absence (; n:12) of a subthreshhold dose of S-nitrosocaptopril. The data are expressed as a percentage of the initial tension generated by potassium chloride (4×10^-2 M; coronary arteries) and are shown as mean ±SEM in each group.
Blood Vessel Preparation. Bovine coronary or femoral arteries were obtained from an abattoir immediately after sacrifice of two- to four-week-old calves. Immediately after removal, the vessel was placed in ice-cold physiologic salt solution (PSS) containing 118.3 mM NaCl, 4.7 mM KCl, 2.5 mM CaCl2, 1.2 mM MgSO4, 1.2 mM KH2 PO4, 25.0 mM NaHCO3, 11.1 mM glucose, and 0.026 mM calcium disodium (ethylenedinitrilo)-tetraacetate. The vessels were then cleaned of adventitial tissue and cut into rings of approximately 5 mm lengths. When called for by the protocol, endothelium was removed from a ring by gently rubbing the luminal surface with a watchmaker's forceps. Vascular rings with intact endothelium were then suspended in organ chambers containing 25 ml of PSS at 37° aerated with 95% O2 -5% CO2. The rings were connected to force transducers (Grass FT03C, Quincy, Mass.) and changes in isometric force recorded continuously (Grass Polygraph Model 79B) over a period of 90 minutes. The optimal length-tension relationship was determined for each ring by observing the response to 10^-6 M norepinephrine after increments in tension of 0.5 gm. The functional integrity of the endothelium was assessed by contracting the vessel with 10^-6 M norepinephrine and then observing the response to 3×10^-7 M acetylcholine chloride.
Thus, to study vasodilating agents in this tissue the vessels were first contracted with potassium chloride (40 mM). Relaxations are expressed as a percent of the concentration to 40 mM potassium chloride.
Relaxations to S-nitrosocaptopril were inhibited by the antagonist of soluble guanylate cyclase, methylene blue (FIG. 4). Sodium nitroprusside induced dose-dependent relaxations of contractions to potassium chloride. The relaxation to sodium nitroprusside was inhibited by subthreshold doses of S-nitrosocaptopril (FIG. 5).

platelets = assay: platelet aggregation in PRP induced by ADP; type: cell-based, human; details: Homo sapiens, Platelet, 11 μM ADP
Experimental: FIG. 7 depicts a graph showing the effect of S-nitrosocaptopril on platelet aggregation. Platelets in PRP were incubated with S-nitrosocaptopril over a range of concentrations for three minutes, after which ADP was added to a final concentration of 11 uM. The maximal rate of aggregation was measured and plotted as a percentage of that observed in the absence of S-nitrosocaptopril. Each point represents the mean ±SEM of five experiments each performed in duplicate.
Platelets. Volunteers who had not ingested acetylsalicylic acid for at least ten days provided venous blood within one hour of use. […] Platelet counts were determined using a Coulter counter (Model ZM; Coulter Electronics, Hialeah, Fla.) and adjusted with platelet-poor plasma (PPP) to 1.5×10^8 platelets/ml prior to use.
Platelet Aggregation. Platelet aggregation was monitored using a standard nephelometric technique (Born and Cross, J. Physiol (London) 168:178-195 (1963)) in which PRP was incubated at 37° with a final concentration of 11 μM ADP and stirred at 900 rpm in a Payton dual channel aggregometer (Payton Associates, Inc., Buffalo, N.Y.). Aggregation was quantitated by measuring either the maximal rate of change of light transmittance or the extent of change of light transmittance. […]

[2] = test system: cGMP (and cAMP) in vascular rings; assay: cGMP (and cAMP) levels in vessel ring segments; type: cell-based; details: 10^-5 M, one minute
Experimental: Since the postulated mechanism by which the nitrosothiol moiety of S-nitrosocaptopril directly relaxes vascular smooth muscle and attenuates the platelet aggregation response is believed to be through activation of soluble guanylate cyclase, cGMP (and cAMP) levels were measured in vessel ring segments and in platelets incubated with 10^-5 M S-nitrosocaptopril.

SMILES: C[C@H](CSN=O)C(=O)N1CCC[C@H]1C(=O)O [S-nitrosocaptopril]
- estimated half-life of the S-nitroso bond (thiol-bound, mercurous-displaceable nitrite) [1]: approximately 2.8 hours
- IC50 (bovine coronary artery; Bos taurus, contracted with potassium chloride (40 mM)): 1.9 µM
- Emax (bovine coronary artery; Bos taurus, contracted with potassium chloride (40 mM), read-out: maximal relaxation, coronary artery): 97 ± 7%
- maximum inhibitory effect / relaxation, coronary artery compared with femoral artery (in words) (bovine coronary artery; FIG. 3): significantly greater than those in the femoral artery (p<0.05); also recorded: significantly greater in the coronary artery than in the femoral artery
- effect on relaxation to sodium nitroprusside (in words) (bovine coronary artery; subthreshold doses of S-nitrosocaptopril, FIG. 5): inhibited
- IC50 (platelets): ~80 µM
- cAMP levels, vessel rings (in words) [2]: did not change from basal levels
- cGMP level, vascular rings [2]: 0.0375 pmol/mg tissue
- fold induction at 10 µM ([2]; Bos taurus, 1 min, read-out: increase of cGMP levels, vascular rings): 36.5
